# Experimental data published in article PMC4439283 (The FEBS journal, 2015).
# Read-outs that look alike come from different tables or passages of the source.
# Columns and labels:
# [1] = target: biotinylated ECL2S peptide (Biotin-GSGS-CCR5 R168-K197 C178S-GSGS) (human); test: SPR
# [2] = target: biotinylated ECL2S peptide (Biotin-GSGS-CCR5 R168-K197 C178S-GSGS) (human); test: SPR; remark: listed apart in the source
# [3] = target: biotinylated ECL2S peptide (Biotin-GSGS-CCR5 R168-K197 C178S-GSGS) (human); test: SPR; remark: listed apart in the source
# X4 strain LAV = settings: ref [15]; cited from earlier work
# R5 viruses [4] = settings: ref [16]; cited from earlier work
# [5] = in solution; ref [16]; cited from earlier work
# X4 viruses [6] = settings: ref [16]; cited from earlier work
# R5 viruses [7] = settings: ref [15], cited from earlier work
# X4 viruses [8] = settings: ref [15]; cited from earlier work
Substance,Kd [1] [µM],Kd [2] [µM],Kd [3] [µM],neutralization of X4 strain LAV (X4 strain LAV),neutralization concentration range (R5 viruses [4]) [µM],conformation of free peptide [5],neutralization concentration range (X4 viruses [6]) [µM],strain specificity (R5 viruses [7]; R5 strains),"50% inhibition concentration, fusion (R5 viruses [7]; R5 virus Ba-L) [µg/mL]","fusion inhibition, R5 viruses (R5 viruses [7]; fusion of R5 viruses with target cells)","fusion inhibition, X4 viruses (X4 viruses [8])"
^mutgp120_(core)/CD4M33 complex,7,6,7.5,,,,,,,,
"^mutgp120_(core) (HIV-1 JR-FL gp120 88-492, ΔV1/V2, V3 replaced by GAG, non-aggregating mutant) (domain or fragment)",,18,,,,,,,,,
"PL2: CCR5 ECL2 peptide, residues 168-191 (RSQKEGLHYTCSSHFPYSQYQFWK; UniProt P51681 168-191, looked up, fragment)",,,,None of these peptides neutralized the X4 strain LAV,~100,unstructured in solution,~100,specific for R5 strains,20,inhibited the fusion of R5 viruses with target cells,did not inhibit fusion of X4 viruses
